Assay [1] concerns IRF pathway. The assay can be described thus: Reporter gene expression assay in THP1-Dual cells, IRF axis (secreted Lucia luciferase). Particulars: Homo sapiens, THP1-Dual, read-out: THP-IRF activity (EC50 range). The format is cell-based, human. A digest of the protocol: (§1)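 THP-1-derived cells carrying inducible NF-κB-SEAP and IRF-Lucia reporters, seeded at 5×10^5 and stimulated with compounds. After […], supernatant SEAP read with QUANTI-Blue and Lucia luciferase with QUANTI-Luc.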
(In general: A reporter such as luciferase makes a cellular process visible.)

Assay [2] has as its target T1, WT/R232 STING protein (Homo sapiens, UniProt Q86WV6, H232R).
T1 construct: host or cells: HEK293T
As to the kind of experiment: Luciferase reporter assay in HEK293T-hSTING-Luciferase cells, WT/R232. Particulars: 20 hr stimulation, read-out: R232 Activity (EC50 range). Type of assay: cell-based. A digest of the protocol:
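Clonal HEK293T cells stably expressing human STING R232 plus an ISRE/ISG54-driven luciferase reporter, 5×10^5 per well, stimulated with compounds for 20 h. Secreted luciferase in supernatant measured by luminescence; […].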

Assay [3] addresses T2, hSTING(HAQ) (Homo sapiens, UniProt Q86WV6, G230A/H232R/R293Q/R71H).
T2 construct: host or cells: HEK293T
As to the kind of experiment: Luciferase reporter assay in HEK293T-hSTING-Luciferase cells, HAQ polymorph. The format is cell-based. Particulars: 20 hr stimulation, read-out: HAQ activity (EC50 range). An excerpt:
(§2) • a) Stable STING expressing cells—Stable HEK293T STING-expressing cell lines were generated using plasmids purchased from Invivogen, Calif., USA, that contain STING cDNA cloned into the pUNO-1 vector under hEF1-HTLV promoter and containing the Blasticidin selection cassette. The plasmids hSTING(R232), hSTING(H232), hSTING(HAQ) were directly procured from Invivogen while hSTING (AQ) and hSTING (Q) were derived from hSTING(HAQ) and hSTING (R232) plasmids respectively by using a PCR based site directed mutagenesis method. These vectors were individually transfected into HEK293T cells using Lipofectamine (Invitrogen) and transfected cells were selected under Blasticidin selection. These transfected cells were further subjected to clonal selection using the limiting dilution method to obtain clonally pure populations of HEK cells transfected with each of the above mentioned human STING variants. Only those clones were selected in which ligand independent activation of STING was minimal. • b) Stable Luciferase reporter gene expressing cells—Stable HEK293T Luciferase reporter gene expressing cell lines were generated using pCDNA4 plasmids under an IRF-inducible promoter. This promoter is comprised of five tandem interferon-stimulated response elements (ISRE) fused to an ISG54 minimal promoter. This vector was transfected into HEK293T cells using Lipofectamine (Invitrogen) and transfected cells were selected under Zeocin selection. These transfected cells were further subjected to clonal selection using the limiting dilution method to obtain clonally pure populations of HEK cells transfected the Luciferase reporter construct. Only those clones were selected in which ligand independent induction of luciferase was minimal.
(§3) 5×10^5 clonally selected HEK293T-hSTING-Luciferase cells were seeded in 384-well plates in growth medium and stimulated with novel compounds. After 20 hr of stimulation supernatant were removed and secretary reporter gene activity were measured using the Quanti-Luc detection system (Invivogen) on a Spectramax i3X luminometer.
(§4) The 5 major polymorphisms of human STING are shown in FIG. 1, with their prevalence in human populations indicated.

Assay [4] deals with T3, hSTING(H232) (Homo sapiens, UniProt Q86WV6).
T3 construct: host or cells: HEK293T
T3 sequence (Q86WV6 whole entry): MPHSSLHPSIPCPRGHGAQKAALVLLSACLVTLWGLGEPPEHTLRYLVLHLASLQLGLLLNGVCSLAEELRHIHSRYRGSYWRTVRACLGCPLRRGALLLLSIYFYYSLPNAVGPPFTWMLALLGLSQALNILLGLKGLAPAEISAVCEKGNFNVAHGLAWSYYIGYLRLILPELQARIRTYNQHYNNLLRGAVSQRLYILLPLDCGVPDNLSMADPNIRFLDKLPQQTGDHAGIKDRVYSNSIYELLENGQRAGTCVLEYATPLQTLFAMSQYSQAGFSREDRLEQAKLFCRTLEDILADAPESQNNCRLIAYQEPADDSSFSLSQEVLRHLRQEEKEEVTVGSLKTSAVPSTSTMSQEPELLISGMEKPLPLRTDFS
As to the kind of experiment: Luciferase reporter assay in HEK293T-hSTING-Luciferase cells, H232 polymorph. The format is cell-based. Particulars: 20 hr stimulation, read-out: H232 activity (EC50 range).
Excerpt: as §2, §3, §4

Assay [5] concerns NF-κB pathway. The assay can be described thus: Reporter gene expression assay in THP1-Dual cells, NFkB axis (secreted SEAP). Particulars: Homo sapiens, THP1-Dual, read-out: THP-NFKB activity (EC50 range). The format is cell-based, human. The method, boiled down:
as §1

SMILES strings stand for the structures.

T2 sequence (Q86WV6 whole entry R71H/G230A/H232R/R293Q): as the sequence (Q86WV6 whole entry) above, with R71H, G230A, H232R, R293Q counted along it
T1 sequence (Q86WV6 whole entry H232R): as the sequence (Q86WV6 whole entry) above, with H232R counted along it

A word on the EC50: it is the concentration that produces a half-maximal response. As to `Cc1cc(CN2C(=O)C(C)Sc3ccc(C(=O)NCc4c(F)cc(F)cc4F)cc32)no1` (stereo not shown) [Example 159, 2-methyl-4-((5-methylisoxazol-3-yl)methyl)-3-oxo-N-(2,4,6-trifluorobenzyl)-3,4-dihydro-2H-benzo[b][1,4] thiazine-6-carboxamide], the EC50 was 1 to 10 µM in assay [1]; less than 1 µM in assay [2]; 1 to 10 µM in assay [3]; 1 to 10 µM in assay [4]; 1 to 10 µM in assay [5].

For the molecule `CC1Sc2ccc(C(=O)NCc3c(F)cc(F)cc3F)cc2N(Cc2cccc(C(N)=O)c2)C1=O` (stereo not shown) [Example 160, 4-(3-carbamoylbenzyl)-2-methyl-3-oxo-N-(2,4,6-trifluorobenzyl)-3,4-dihydro-2H-benzo[b][1,4] thiazine-6-carboxamide], the EC50 in assay [1] is more than 10 µM; in assay [2], less than 1 µM; in assay [3] it was more than 10 µM; in assay [4], more than 10 µM; in assay [5] it was more than 10 µM.

`CC1(C)Sc2ccc(C(=O)NCc3cc4ccccc4o3)cc2N(Cc2ccccc2F)C1=O` [Example 161, N-(benzofuran-2-ylmethyl)-4-(2-fluorobenzyl)-2,2-dimethyl-3-oxo-3,4-dihydro-2H-benzo[b][1,4] thiazine-6-carboxamide]: the EC50 in assay [1] was more than 10 µM; in assay [2], 1 to 10 µM; in assay [3], 1 to 10 µM; in assay [4], more than 10 µM; in assay [5], more than 10 µM.

In the case of `O=C(NCc1c(F)cc(F)cc1F)c1cnc2c(c1)N(Cc1c(F)cccc1Cl)C(=O)CS2` [Example 178, 1-(2-chloro-6-fluorobenzyl)-2-oxo-N-(2,4,6-trifluorobenzyl)-2,3-dihydro-1H-pyrido[2,3-b-1,4]thiazine-7-carboxamide], the EC50 was more than 10 µM in assay [1]; less than 1 µM in assay [2]; more than 10 µM in assay [3]; more than 10 µM in assay [4]; more than 10 µM in assay [5].

For `O=C(NCc1ccco1)c1ccc2c(n1)N(Cc1c(F)cccc1Cl)C(=O)CS2` [Example 181, 4-(2-chloro-6-fluorobenzyl)-N-(furan-2-ylmethyl)-3-oxo-3,4-dihydro-2H-pyrido[3,2-b-1,4]thiazine-6-carboxamide], the EC50 in assay [1] was more than 10 µM; in assay [2] it was 1 to 10 µM; in assay [3], more than 10 µM; in assay [4], more than 10 µM; in assay [5] it was more than 10 µM.

For `O=C(NCc1cc2ccccc2o1)c1ccc2c(n1)N(Cc1cc(F)cc(F)c1)C(=O)CS2` [Example 183, N-(benzofuran-2-ylmethyl)-4-(3,5-difluorobenzyl)-3-oxo-3,4-dihydro-2H-pyrido[3,2-b-1,4]thiazine-6-carboxamide], the concentration for a half-maximal effect (EC50) in assay [1] is more than 10 µM; in assay [2], 1 to 10 µM; in assay [3], 1 to 10 µM; in assay [4] it was 1 to 10 µM; in assay [5], 1 to 10 µM.

In the case of `CC1Sc2ccc(C(=O)NCc3ccc(F)cc3F)nc2N(Cc2c(F)cccc2Cl)C1=O` (stereo not shown) [Example 187, 4-(2-chloro-6-fluorobenzyl)-N-(2,4-difluorobenzyl)-2-methyl-3-oxo-3,4-dihydro-2H-pyrido[3,2-b-1,4]thiazine-6-carboxamide], the EC50 in assay [1] is more than 10 µM; in assay [2], 1 to 10 µM; in assay [3] it was more than 10 µM; in assay [4], more than 10 µM; in assay [5], more than 10 µM.

For the molecule `CC1Sc2ccc(C(=O)NCc3cc4ccccc4o3)nc2N(Cc2c(F)cccc2Cl)C1=O` (stereo not shown) [Example 188, N-(benzofuran-2-ylmethyl)-4-(2-chloro-6-fluorobenzyl)-2-methyl-3-oxo-3,4-dihydro-2H-pyrido[3,2-b-1,4]thiazine-6-carboxamide], the EC50 was more than 10 µM in assay [1]; less than 1 µM in assay [2]; 1 to 10 µM in assay [3]; 1 to 10 µM in assay [4]; 1 to 10 µM in assay [5].
